Marks after values point to notes of the source that are not given here.
Legend:
TNF-α [1] = assay: Intracerebral TNF-α production in rat middle cerebral artery occlusion-reperfusion model; format: in vivo, male Wistar rats; details: 10 mg/kg orally 30 min after occlusion; brain isolated 12 hr after occlusion; ELISA; FIG. 1
Description: (§1) The middle cerebral artery of male Wistar rats (Japan Laboratory animals Inc.) was obstructed with suture (silicon-coated nylon thread), and test compound A (10 mg/kg) dissolved in saline was intravenously administered in 30 min after occlusion, and middle cerebral artery was reperfused in 60 min after administration. In only the rats used for TNF-α measurement, test compound A was administered orally. The brain was isolated at 12 hr after the occlusion (see Koizumi, J. et al., Jpn. J. Stroke, 8, 1-8, 1986). The brain tissue was homogenized, the centrifuged supernatant was collected and cytokine and chemokine were measured by ELISA. Intracerebral TNF-α, IL-1β and IL-6 were measured using an Immunoassay Kit (BIOSOURCE) according to the manufactures' protocol. MCP-1 was measured using an MCP-1 Instant ELISA (Bener MedSystems) according to the manufactures' protocol.

IL-1β = assay: Intracerebral IL-1β production in rat middle cerebral artery occlusion-reperfusion model; format: in vivo, male Wistar rats; details: 10 mg/kg intravenously 30 min after occlusion; brain isolated 12 hr after occlusion; ELISA; FIG. 2
Description: as §1

IL-6 [2] = assay: Intracerebral IL-6 production in rat middle cerebral artery occlusion-reperfusion model; format: in vivo, male Wistar rats; details: 10 mg/kg intravenously 30 min after occlusion; brain isolated 12 hr after occlusion; ELISA; FIG. 3
Description: as §1

TNF-α [3] = assay: TNF-α production in LPS-administered mouse; format: in vivo, male BALB/c mouse
Description: (§2) LPS (lipopolysaccharide, derived from E. coli 0111:B4, Sigma, 500 μg/kg) was intraperitoneally administered to male BALB/c mouse (Charles River Laboratories Japan). After 90 min after LPS administration, the blood was taken under anesthesia, and centrifuged to collect plasma. TNF-α was measured using an Immunoassay Kit (R&D Systems) and IL-10, MCP-1 and IL-6 were measured using an Immunoassay Kit (BIOSOURCE). Test compound A, the compound synthesized in Example 3 (test compound B) and the compound synthesized in Example 7 (test compound C) were dissolved in saline, and the mixture was orally administered at 10 mg/kg 30 min before LPS administration. As shown in the Tables, the effect of each test compound on respective […] cytokines was calculated as the ratio of each cytokine concentration in the blood of the group administered with each test compound to each cytokine concentration in the blood of the group free of administration of each test compound.

IL-6 [4] = assay: IL-6 production in LPS-administered mouse; format: in vivo, male BALB/c mouse; details: for IL-6 production (%): 10 mg/kg orally 30 min before LPS 500 μg/kg i.p., plasma 90 min after LPS, ratio to group without test compound
Description: as §2

[5] = tested on: rat middle cerebral artery occlusion-reperfusion model; assay: Cerebral infarction volume in rat middle cerebral artery occlusion-reperfusion model; format: in vivo, male Wistar rats; details: 10 mg/kg intravenously 30 min after occlusion, reperfusion 90 min after occlusion, brain isolated 24 hr later, TTC stain; FIG. 7
Description: The middle cerebral artery of male Wistar rats (Japan Laboratory Animals Inc.) was obstructed with suture (silicon-coated nylon thread), and saline (Vehicle, n=7), test compound A (10 mg/kg, n=6) dissolved in saline, test compound B ([…], n=7) dissolved in saline, and test compound C (10 mg/kg, n=7) dissolved in saline were each intravenously administered in 30 min after occlusion and the artery was reperfused in 90 min after occlusion. The brain was isolated 24 hr later. A 2 mm brain strip was prepared, and the strip was stained with PBS (pH 7.4, 37° C.) containing 1% 2,3,5-triphenyltetrazolium chloride (TTC, Wako Pure Chemical Industries, Ltd.). The cerebral infarction area was measured by image analysis and the cerebral infarction volume was calculated.

[6] = Evaluation of bioavailability in rat; format: in vivo, male SD(IGS) rats
Description: Test compound A, test compound B and test compound C were each dissolved in 0.5% aqueous HPMC (hydroxypropyl methylcellulose) solution in the case of oral administration, or in saline in the case of intravenous administration, and they were orally or intravenously administered to male SD(IGS) rats (Charles River Laboratories Japan) by 3 mg/kg. The concentration of unchanged drug in the plasma of each rat was measured, and bioavailability (F(%)) was calculated (F (%)=(AUC0-∞,p.o./AUC0-∞,i.v.,mean)×(Dosei.v./Dosep.o.)×100). The test compound was administered by gavage using an oral gavage needle (p.o.), or administered in the tail vein (i.v.). The blood samples were collected at 15 and 30 min, 1, 2, 4, 6, 8 and 24 hr after administration in the case of oral administration, and 5 and 30 min, 1, 2, 4, 6, 8 and 24 hr after administration in the case of intravenous administration.
The results are shown in Tables 4 (test compound A), 5 (test compound B) and 6 (test compound C). The Cmax values for i.v. in Tables 4, 5 and 6 show plasma concentration at 5 min after administration.

[7] = Evaluation of intracerebral transitivity in rat; format: in vivo, SD(IGS) rats; details: for Kp value (ratio of plasma concentration and intracerebral concentration): 30 mg/kg orally
Description: The test compound A dissolved in 0.5% aqueous HPMC solution was orally administered at 30 mg/kg, and test compound B and test compound C dissolved in 0.5% aqueous HPMC solution were each orally administered at 3 mg/kg to SD(IGS) rats (Charles River Laboratories Japan). At 1 hr and 4 hr after the administration of the test compound, blood samples were collected, and the brain (cerebral•cerebellum) was isolated. The plasma concentration and intracerebral concentration of each test compound were measured, and the ratio (Kp value) thereof was calculated, based on which the intracerebral transitivity was evaluated.

[8] = 10 mg/kg orally 30 min before LPS
[9] = 3 mg/kg i.v., plasma, Mean + SD
[10] = 3 mg/kg p.o., plasma, Mean + SD

SMILES: CC(=O)NC1(c2ccc(CN3CCN(c4ncccn4)CC3)cc2)CC1.Cl [test compound A, N-(1-(4-((4-(pyrimidin-2-yl)piperazin-1-yl)methyl)phenyl)cyclopropyl)acetamide•hydrochloride]
- intracerebral TNF-α concentration increased by transient cerebral ischemia (TNF-α [1]): suppressed
- intracerebral IL-1β concentration increased by transient cerebral ischemia (IL-1β): suppressed
- intracerebral IL-6 concentration increased by transient cerebral ischemia (IL-6 [2]): suppressed
- TNF-α production in LPS model mouse (in words) (TNF-α [3]; [8]): suppressed
- TNF-α production (%) (TNF-α [3]; Table 1, 10 mg/kg orally 30 min before LPS 500 μg/kg i.p., plasma 90 min after LPS, ratio to group without test compound): 43.5%
- IL-6 production in LPS model mouse (in words) (IL-6 [4]; [8]): suppressed
- IL-6 production (%) (IL-6 [4]; Table 2): 74.4%
- IL-6 production (%) (IL-6 [4]; Table 3): 78.4%
- suppression of cerebral infarction volume [5]: 42.5%
- AUC0-24 h [6, 9]: 3850 ± 78.4 ngh/mL
- AUC0-∞ [6, 9]: 3841.3 ± 77.4 ngh/mL
- Cmax (C5 min, plasma concentration at 5 min after administration) [6, 9]: 2219.9 ± 103.8^2) ng/mL
- F (bioavailability) ([6]; 3 mg/kg p.o. vs 3 mg/kg i.v., F = (AUC0-∞,p.o./AUC0-∞,i.v.,mean) × (Dosei.v./Dosep.o.) × 100): 104.3%
- AUC0-24 h [6, 10]: 4032.9 ± 501.8 ngh/mL
- AUC0-∞ [6, 10]: 4008.2 ± 491.5 ngh/mL
- Cmax [6, 10]: 1459.7 ng/mL
- Kp value (ratio of plasma concentration and intracerebral concentration) ([7]; 1 hr after administration): 0.5
- Kp value (ratio of plasma concentration and intracerebral concentration) ([7]; 4 hr after administration): 0.5
- intracerebral transitivity (in words) ([7]; orally, test compound A 30 mg/kg, test compounds B and C 3 mg/kg): intracerebrally transferred
